Legend:
[1] = system: bedstraw; assay: Test B pre/postemergence bedstraw; format: in vivo, Galium aparine
Method in brief: (§1)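 Response is a visual 0-to-10 score relative to untreated plants, where 0 means no effect and 10 means complete control, taken twelve to sixteen days after application. Treatments went onto soil at planting and onto foliage of 1- to 4-leaf plants, using a surfactant-containing non-phytotoxic solvent.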

[2] = system: blackgrass; assay: Test B pre/postemergence blackgrass; format: in vivo, Alopecurus myosuroides
Method in brief: as §1

[3] = system: surinam grass; assay: Test B pre/postemergence surinam grass; format: in vivo, Brachiaria decumbens
Method in brief: as §1

[4] = system: cocklebur; assay: Test B pre/postemergence cocklebur; format: in vivo, Xanthium strumarium
Method in brief: as §1

[5] = system: corn; assay: Test B pre/postemergence corn; format: in vivo, Zea mays
Method in brief: as §1

[6] = system: crabgrass; assay: Test B pre/postemergence crabgrass; format: in vivo, Digitaria sanguinalis
Method in brief: as §1

[7] = system: giant foxtail; assay: Test B pre/postemergence giant foxtail; format: in vivo, Setaria faberii
Method in brief: as §1

[8] = system: morningglory; assay: Test B pre/postemergence morningglory; format: in vivo, Ipomoea hederacea
Method in brief: as §1

[9] = system: pigweed; assay: Test B pre/postemergence pigweed; format: in vivo, Amaranthus retroflexus
Method in brief: as §1

[10] = system: rape; assay: Test B pre/postemergence rape; format: in vivo, Brassica napus
Method in brief: as §1

[11] = system: soybean; assay: Test B pre/postemergence soybean; format: in vivo, Glycine max; conditions: Preemergence
Method in brief: as §1

[12] = system: sugar beet; assay: Test B pre/postemergence sugar beet; format: in vivo, Beta vulgaris; conditions: Preemergence
Method in brief: as §1

[13] = system: velvetleaf; assay: Test B pre/postemergence velvetleaf; format: in vivo, Abutilon theophrasti; conditions: Preemergence
Method in brief: as §1

[14] = system: wheat; assay: Test B pre/postemergence wheat; format: in vivo, Triticum aestivum; conditions: Preemergence
Method in brief: as §1

[15] = system: wild oat; assay: Test B pre/postemergence wild oat; format: in vivo, Avena fatua; conditions: Preemergence
Method in brief: as §1

[16] = system: purple nutsedge; assay: Test B pre/postemergence purple nutsedge; format: in vivo, Cyperus rotundus; conditions: Postemergence
Method in brief: as §1

[17] = system: rice; assay: Test B flood test rice; format: in vivo, Oryza sativa
Method in brief: (§2)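 Each value is a visual injury score relative to controls, with 10 meaning complete control and 0 no effect. Evaluation took place twelve to sixteen days after the 2-leaf-stage plants were treated and kept in the greenhouse.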

[18] = system: smallflower flatsedge; assay: Test B flood test smallflower flatsedge; format: in vivo, Cyperus difformis
Method in brief: as §2

[19] = system: duck salad; assay: Test B flood test duck salad; format: in vivo, Heteranthera limosa
Method in brief: as §2

[20] = system: bamyardgrass; assay: Test B flood test barnyardgrass; format: in vivo, Echinochloa crus-galli
Method in brief: as §2

[21] = Preemergence, Rate 31 g/ha, visual rating, scale 0 to 10 (0 no effect, 10 complete control)
[22] = Preemergence, Rate 62 g/ha, scale of 0 to 10 where 0 is no effect and 10 is complete control
[23] = Preemergence, Rate 250 g/ha, scale of 0 to 10 where 0 is no effect and 10 is complete control
[24] = Rate 31 g/ha, Postemergence, scale 0 to 10
[25] = Rate 62 g/ha, Postemergence, scale of 0 to 10 where 0 is no effect and 10 is complete control
[26] = Rate 125 g/ha, Postemergence, scale 0 to 10
[27] = Rate 125 g/ha, Preemergence, scale of 0 to 10 where 0 is no effect and 10 is complete control
[28] = Rate 31 g/ha, visual rating, scale 0 to 10 (0 no effect, 10 complete control)
[29] = Rate 62 g/ha, scale of 0 to 10 where 0 is no effect and 10 is complete control
[30] = Rate 250 g/ha, scale of 0 to 10 where 0 is no effect and 10 is complete control
[31] = Rate 125 g/ha, scale of 0 to 10 where 0 is no effect and 10 is complete control
[32] = Rate 62 g/ha, headed Pre-emergence (flood test species), scale 0 to 10 (0 no effect, 10 complete control)
[33] = Rate 125 g/ha, Pre-emergence, flood test species, scale 0 to 10 where 0 is no effect and 10 is complete control
[34] = Rate 250 g/ha, Pre-emergence, flood-test species, scale 0 to 10, 0 is no effect, 10 is complete control
[35] = Rate 500 g/ha, Pre-emergence, flood test species, scale 0 to 10 (0 no effect, 10 complete control)

CC(C)N(C(=O)n1oc(=O)n(CCc2ccccc2)c1=O)c1ccc(F)cc1 [Compound 250]
Bedstraw plant response rating [1, 21]: 0
Bedstraw plant response rating [1, 22]: 0
Bedstraw plant response rating [1, 23]: 0
Bedstraw plant response rating [1, 24]: 0
Bedstraw plant response rating [1, 25]: 0
Bedstraw plant response rating [1, 26]: 0
Bedstraw plant response rating [1, 27]: 0
Plant response rating (0 to 10; 0 is no effect, 10 is complete control), Bedstraw ([1]; Rate 250 g/ha, Postemergence): 9
Blackgrass plant response rating [2, 21]: 0
Blackgrass plant response rating [2, 22]: 0
Blackgrass plant response rating [2, 23]: 0
Blackgrass plant response rating [2, 24]: 0
Blackgrass plant response rating [2, 25]: 0
Blackgrass plant response rating [2, 26]: 0
Blackgrass plant response rating [2, 27]: 0
Plant response rating (0 to 10; 0 is no effect, 10 is complete control), Blackgrass ([2]; Rate 250 g/ha, Postemergence): 2
B. signalgrass plant response rating [3, 21]: 0
B. signalgrass plant response rating [3, 22]: 0
B. signalgrass plant response rating [3, 23]: 0
B. signalgrass plant response rating [3, 24]: 0
B. signalgrass plant response rating [3, 25]: 0
B. signalgrass plant response rating ([3]; Rate 125 g/ha, Postemergence, scale 0 (no effect) to 10 (complete control)): 0
B. signalgrass plant response rating [3, 27]: 0
Plant response rating (0 to 10; 0 is no effect, 10 is complete control), B. signalgrass ([3]; Rate 250 g/ha, Postemergence): 0
Cocklebur plant response rating [4, 21]: 0
Cocklebur plant response rating [4, 22]: 0
Cocklebur plant response rating [4, 23]: 0
Cocklebur plant response rating [4, 24]: 0
Cocklebur plant response rating [4, 25]: 0
Cocklebur plant response rating [4, 26]: 0
Cocklebur plant response rating [4, 27]: 0
Plant response rating (0 to 10; 0 is no effect, 10 is complete control), Cocklebur ([4]; Rate 250 g/ha, Postemergence): 1
Corn plant response rating [5, 21]: 0
Corn plant response rating [5, 22]: 0
Corn plant response rating [5, 23]: 0
Corn plant response rating [5, 24]: 0
Corn plant response rating [5, 25]: 0
Corn plant response rating [5, 26]: 0
Corn plant response rating [5, 27]: 0
Plant response rating (0 to 10; 0 is no effect, 10 is complete control), Corn ([5]; Rate 250 g/ha, Postemergence): 0
Crabgrass plant response rating [6, 21]: 0
Crabgrass plant response rating [6, 22]: 2
Crabgrass plant response rating [6, 23]: 8
Crabgrass plant response rating [6, 24]: 0
Crabgrass plant response rating [6, 27]: 4
Plant response rating (0 to 10; 0 is no effect, 10 is complete control), Crabgrass ([6]; Rate 250 g/ha, Postemergence): 0
Giant foxtail plant response rating [7, 21]: 7
Giant foxtail plant response rating [7, 22]: 8
Giant foxtail plant response rating [7, 23]: 10
Giant foxtail plant response rating [7, 24]: 0
Giant foxtail plant response rating [7, 27]: 8
Plant response rating (0 to 10; 0 is no effect, 10 is complete control), Giant foxtail ([7]; Rate 250 g/ha, Postemergence): 0
Morningglory plant response rating [8, 21]: 0
Morningglory plant response rating [8, 22]: 0
Morningglory plant response rating [8, 23]: 0
Morningglory plant response rating [8, 24]: 4
Morningglory plant response rating [8, 27]: 0
Plant response rating (0 to 10; 0 is no effect, 10 is complete control), Morningglory ([8]; Rate 250 g/ha, Postemergence): 6
Redroot pigweed plant response rating [9, 21]: 0
Redroot pigweed plant response rating [9, 22]: 0
Redroot pigweed plant response rating [9, 23]: 3
Redroot pigweed plant response rating [9, 24]: 0
Redroot pigweed plant response rating [9, 27]: 3
Plant response rating (0 to 10; 0 is no effect, 10 is complete control), Redroot pigweed ([9]; Rate 250 g/ha, Postemergence): 0
Rape plant response rating [10, 21]: 0
Rape plant response rating [10, 22]: 0
Rape plant response rating [10, 23]: 0
Rape plant response rating [10, 24]: 0
Rape plant response rating [10, 27]: 0
Plant response rating (0 to 10; 0 is no effect, 10 is complete control), Rape ([10]; Rate 250 g/ha, Postemergence): 3
Soybean plant response rating [11, 28]: 0
Soybean plant response rating [11, 29]: 0
Soybean plant response rating [11, 30]: 0
Soybean plant response rating [11, 31]: 0
Sugarbeets plant response rating [12, 28]: 0
Sugarbeets plant response rating [12, 29]: 0
Sugarbeets plant response rating [12, 30]: 5
Sugarbeets plant response rating [12, 31]: 0
Velvetleaf plant response rating [13, 28]: 0
Velvetleaf plant response rating [13, 29]: 0
Velvetleaf plant response rating [13, 30]: 0
Velvetleaf plant response rating [13, 31]: 0
Wheat plant response rating [14, 28]: 0
Wheat plant response rating [14, 29]: 0
Wheat plant response rating [14, 30]: 0
Wheat plant response rating [14, 31]: 0
Wild oats plant response rating [15, 28]: 0
Wild oats plant response rating [15, 29]: 0
Wild oats plant response rating [15, 30]: 0
Wild oats plant response rating [15, 31]: 0
Nutsedge plant response rating ([16]; Rate 31 g/ha, scale 0 to 10): 0
Plant response rating (0 to 10; 0 is no effect, 10 is complete control), Nutsedge ([16]; Rate 250 g/ha): 0
Rice plant response rating [17, 32]: 0
Rice plant response rating [17, 33]: 0
Rice plant response rating [17, 34]: 0
Rice plant response rating [17, 35]: 0
S. Flatsedge plant response rating [18, 32]: 0
S. Flatsedge plant response rating [18, 33]: 0
S. Flatsedge plant response rating [18, 34]: 0
S. Flatsedge plant response rating [18, 35]: 0
Ducksalad plant response rating [19, 32]: 0
Ducksalad plant response rating [19, 33]: 0
Ducksalad plant response rating [19, 34]: 0
Ducksalad plant response rating [19, 35]: 4
Barnyardgrass plant response rating [20, 32]: 0
Barnyardgrass plant response rating [20, 33]: 0
Barnyardgrass plant response rating [20, 34]: 0
Barnyardgrass plant response rating [20, 35]: 0
